Measurements taken from patent US20030134842A1, “METHODS FOR THE TREATMENT OR PREVENTION OF INFLAMMATORY DISEASES CHARACTERIZED BY ABNORMAL CELL PROLIFERATION” (priority 1997, published 2003).
Like-named read-outs stand apart in the source and are kept apart here.

Experiments:
Type in all cases: cell-based
[1] = biological target: T1, Ca2+-activated potassium channel (Gardos channel) of erythrocytes (Homo sapiens, UniProt O15554); assay: Gardos channel assay
T1 construct: endogenous in cells; host or cells: erythrocytes

[2] = system: NIH 3T3 mouse fibroblast cells; assay: Mitogenic assay (mitogen-induced cell proliferation); conditions: for IC50: mitogen-induced cell proliferation
HT29 = assay: SRB antiproliferative assay HT29; conditions: Homo sapiens
Text: (§1) The cells were passaged using Trypsin (Gibco).

MCF7 = assay: SRB antiproliferative assay MCF7; conditions: Homo sapiens
Text: as §1

MMRU = assay: SRB antiproliferative assay MMRU; conditions: Homo sapiens
Text: as §1

A549 = assay: SRB antiproliferative assay A549; conditions: Homo sapiens
Text: as §1

HTB174 = assay: SRB antiproliferative assay HTB174; conditions: HTB174 (Lung), 5% FCS/5 day incubation; read-out: Test Compound IC50
Text: as §1

HEPG2 = assay: SRB antiproliferative assay HEPG2; conditions: Homo sapiens
Text: as §1

U118MG = assay: SRB antiproliferative assay U118MG; conditions: Homo sapiens, U-118-MG; U118MG, 5% FCS/3 days; read-out: Test Compound IC50 Value in Cell Lines
Text: as §1

[3] = Mus musculus, NIH3T3, NIH 3T3 mouse fibroblast cells
[4] = HT-29, HT29, 5% FCS/2 days, read-out: Test Compound IC50 Value in Cell Lines
[5] = MMRU, 5% FCS/2 days, read-out: Test Compound IC50 Value in Cell Lines
[6] = A549, A549, 5% FCS/2 days, read-out: Test Compound IC50 Value in Cell Lines
[7] = HT-29, HT29 (Colon), 5% FCS/5 day incubation, read-out: Test Compound IC50
[8] = MCF7 (Breast), 5% FCS/5 day incubation, read-out: Test Compound IC50
[9] = MMRU (Melanoma), 5% FCS/5 day incubation, read-out: Test Compound IC50
[10] = HEPG2 (Hepatocel), 5% FCS/5 day incubation, read-out: Test Compound IC50
[11] = A549, A549 (Lung), 5% FCS/5 day incubation, read-out: Test Compound IC50
[12] = HT-29, HT29, 5% FCS/3 days, read-out: Test Compound IC50 Value in Cell Lines
[13] = MCF7, 5% FCS/3 days, read-out: Test Compound IC50 Value in Cell Lines
[14] = MMRU, 5% FCS/3 days, read-out: Test Compound IC50 Value in Cell Lines
[15] = HEPG2, 5% FCS/3 days, read-out: Test Compound IC50 Value in Cell Lines
[16] = A549, A549, 5% FCS/3 days, read-out: Test Compound IC50 Value in Cell Lines

T1 sequence (O15554 whole entry): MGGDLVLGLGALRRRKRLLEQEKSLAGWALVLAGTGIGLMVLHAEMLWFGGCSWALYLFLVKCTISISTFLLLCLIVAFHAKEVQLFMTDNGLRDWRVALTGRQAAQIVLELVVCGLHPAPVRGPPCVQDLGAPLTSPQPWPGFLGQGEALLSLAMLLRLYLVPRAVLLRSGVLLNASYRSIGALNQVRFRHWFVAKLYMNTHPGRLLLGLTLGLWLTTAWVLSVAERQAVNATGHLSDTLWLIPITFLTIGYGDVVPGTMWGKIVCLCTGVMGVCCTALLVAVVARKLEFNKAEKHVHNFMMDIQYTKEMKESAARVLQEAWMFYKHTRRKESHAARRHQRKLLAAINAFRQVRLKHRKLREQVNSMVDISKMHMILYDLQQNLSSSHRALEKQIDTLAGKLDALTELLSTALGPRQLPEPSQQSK

IC50 [1] [nM]	inhibition at 10 µM ([1]; 10 μM compound) [%]	IC50 (HT29; [7]) [nM]	IC50 (MCF7; [8]) [nM]	IC50 (HEPG2; [10]) [nM]	IC50 (A549; [11]) [nM]	SMILES	IC50 [2, 3] [nM]	IC50 (HTB174) [nM]	IC50 (MMRU; [9]) [nM]	further results
775	75.2					c1ccc(C2c3ccccc3CNc3ccccc32)cc1 (centres unmarked) [Compound 1]				
1300	99					CN1Cc2ccccc2C(c2ccccc2)c2ccccc21 (centres unmarked) [Compound 2]	5200			
886	97.4					Clc1ccccc1C1c2ccccc2CNc2ccccc21 (centres unmarked) [Compound 3]	2400			
384	98.1					CN1Cc2ccccc2C(c2ccccc2Cl)c2ccccc21 (centres unmarked) [Compound 4]	1500			IC50 (HT29; HT-29, HT29, 2% FCS/3 days, read-out: Test Compound IC50 Value in Cell Lines): 9700 nM; IC50 (MCF7; MCF7, 2% FCS/3 days, read-out: Test Compound IC50 Value in Cell Lines): 1700 nM; IC50 (MMRU; MMRU, 2% FCS/3 days, read-out: Test Compound IC50 Value in Cell Lines): 4600 nM; IC50 (A549; A549, A549, 2% FCS/3 days, read-out: Test Compound IC50 Value in Cell Lines): 11400 nM
> 10000	14.4					c1ccc(CN2Cc3ccccc3C(c3ccccc3)c3ccccc32)cc1 (centres unmarked) [Compound 5]				IC50 (HT29; [4]): 1000 nM; IC50 (MMRU; [5]): > 10000 nM; IC50 (A549; [6]): 1400 nM
236	97.5					COC(=O)N1Cc2ccccc2C(c2ccccc2)c2ccccc21 (centres unmarked) [Compound 6]				IC50 (HT29; [4]): > 10000 nM; IC50 (MMRU; [5]): 10000 nM; IC50 (A549; [6]): > 10000 nM
> 10000	35.8					CN1Cc2ccccc2C(c2ccccc2)c2cc(Br)ccc21 (centres unmarked) [Compound 7]	1600			IC50 (HT29; [4]): > 10000 nM; IC50 (MMRU; [5]): > 10000 nM; IC50 (A549; [6]): > 10000 nM
	0					Clc1ccccc1C1c2ccccc2CN(Cc2ccccc2)c2ccccc21 (centres unmarked) [Compound 8]	2200			
1530 to 1940	63					CCOC(=O)C(=O)N1Cc2ccccc2C(c2ccccc2)c2ccccc21 (centres unmarked) [Compound 10]				
> 10000	9.5					O=C(O)C(=O)N1Cc2ccccc2C(c2ccccc2)c2ccccc21 (centres unmarked) [Compound 11]				
> 10000	54.8					COc1ccc2c(c1)CNc1ccccc1C2(c1ccccc1)c1ccc(F)cc1 (centres unmarked) [Compound 12]				
	0	1500	2700	1800	3100	O=C(c1ccc(Cl)cc1)N1Cc2ccccc2C(c2ccccc2)c2ccccc21 (centres unmarked) [Compound 13]	1700	1400	1500	
> 10000	9.5					Clc1ccc2c(c1)C(c1ccccc1)c1cc3ccccc3cc1CN2 (centres unmarked) [Compound 15]				
> 10000	0.45	2600	4200	3400	> 5000	O=C(c1ccccc1)N1Cc2ccccc2C(c2ccccc2)c2ccccc21 (centres unmarked) [Compound 16]	1700	2600	2700	
> 10000	20.6	1700	4500	2600	> 5000	COc1cccc(C(=O)N2Cc3ccccc3C(c3ccccc3)c3ccccc32)c1 (centres unmarked) [Compound 17]	1600	3600	2500	
502 to 692	81.5					COc1cccc2c1C(c1ccccc1Cl)c1cc(Cl)ccc1NC2 (centres unmarked) [Compound 18]	2600			
> 10000	52					COc1ccc2c(c1)CNc1ccc(Cl)cc1C2c1ccccc1Cl (centres unmarked) [Compound 19]	1600			
> 10000	2.1	1800	3500	1900	4200	COc1ccc(C(=O)N2Cc3ccccc3C(c3ccccc3)c3ccccc32)cc1 (centres unmarked) [Compound 21]	2700	1900	1500	
> 10000	14.9	700	1800	1400	1900	Cc1ccc(C(=O)N2Cc3ccccc3C(c3ccccc3)c3ccccc32)cc1 (centres unmarked) [Compound 22]	3600	1400	900	
> 10000	18.2	2100	3100	2300	3400	COc1ccc2c(c1)CN(C(=O)c1ccc(Cl)cc1)c1ccc(Cl)cc1C2c1ccccc1Cl (centres unmarked) [Compound 23]		1800	2200	
> 10000	32 to 55					COc1cccc2c1C(c1ccccc1Cl)c1cc(Cl)ccc1N(C(=O)c1ccc(Cl)cc1)C2 (centres unmarked) [Compound 24]				
> 10000	8.5					O=C(c1ccc2ccccc2c1)N1Cc2ccccc2C(c2ccccc2)c2ccccc21 (centres unmarked) [Compound 25]				
						CN1Cc2ccccc2C(c2ccccc2Cl)c2ccccc21 (centres unmarked) [Compound 29]				IC50 (HT29; [4]): > 10000 nM; Gardos Channel Assay Inhibition ([1]; 10 μM compound, 10 µM): 95.1%; IC50 (MMRU; [5]): > 10000 nM; Mitogenic Assay Inhibition ([2]; 10 µM compound, NIH 3T3 mouse fibroblast cells): 99.0%; IC50 ([2]; NIH 3T3 mouse fibroblast cells): 800 nM; IC50 (A549; [6]): > 10000 nM
	0					O=C(Nc1ccccc1)N1Cc2ccccc2C(c2ccccc2Cl)c2ccccc21 (centres unmarked) [Compound 32]	1100			IC50 (U118MG): 6800 nM; IC50 (HT29; [12]): 6300 nM; IC50 (MCF7; [13]): 5400 nM; IC50 (MMRU; [14]): 4900 nM; IC50 (HEPG2; [15]): 6200 nM; IC50 (A549; [16]): 6900 nM
> 10000	67.5	1200	2100	1400	3100	CNc1ccc(C(=O)N2Cc3ccccc3C(c3ccccc3Cl)c3ccccc32)cc1 (centres unmarked) [Compound 33]	2400	1400	1300	IC50 (U118MG): 6800 nM; IC50 (HT29; [12]): 6300 nM; IC50 (MCF7; [13]): 5400 nM; IC50 (MMRU; [14]): 4900 nM; IC50 (HEPG2; [15]): 6200 nM; IC50 (A549; [16]): 6900 nM
> 10000	12	1600	2000	1500	> 5000	Nc1ccc(C(=O)N2Cc3ccccc3C(c3ccccc3Cl)c3ccccc32)cc1 (centres unmarked) [Compound 34]	4000	900	1200	IC50 (HT29; [4]): 6800 nM; IC50 (MMRU; [5]): > 10000 nM; IC50 (A549; [6]): > 10000 nM
71 to 99	98.3	4800	2400	4500	> 5000	O=C(Nc1ccc([N+](=O)[O-])cc1)N1Cc2ccccc2C(c2ccccc2Cl)c2ccccc21 (centres unmarked) [Compound 35]		4000	3100	IC50 (HT29; [4]): 10000 nM; IC50 (MMRU; [5]): > 10000 nM; IC50 (A549; [6]): > 10000 nM
